Measured values: patent publication US6399782B1, “Benzimidazole inhibitors of fructose 1,6-bisphosphatase” (Metabasis Therapeutics, Inc., priority 1997, dated 2002)

Assays:
human liver FBPase = target: T1, human liver FBPase (Homo sapiens, UniProt P09467); experiment: Inhibition of human liver FBPase; format: biochemical
T1 construct: made in house; host or cells: E. coli BL21
T1 sequence (P09467 2-338 limits assumed): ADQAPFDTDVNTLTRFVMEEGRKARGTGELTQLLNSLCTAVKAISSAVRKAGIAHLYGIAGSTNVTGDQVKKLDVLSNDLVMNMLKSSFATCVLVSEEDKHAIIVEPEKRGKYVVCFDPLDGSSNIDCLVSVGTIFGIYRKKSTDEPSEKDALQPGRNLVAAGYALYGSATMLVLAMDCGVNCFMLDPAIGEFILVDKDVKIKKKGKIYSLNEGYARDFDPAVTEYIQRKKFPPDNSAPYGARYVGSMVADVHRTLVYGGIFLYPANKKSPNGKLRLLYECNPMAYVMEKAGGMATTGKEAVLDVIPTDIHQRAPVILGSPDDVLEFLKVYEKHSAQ

hlFBPase = target: T2, hlFBPase (Homo sapiens, UniProt P09467); experiment: AMP site binding (displacement of radiolabeled AMP)
T2 construct: made in house; host or cells: E. coli BL21
T2 sequence (P09467 2-338 limits assumed): T1 sequence (P09467 2-338 limits assumed)
Description: To determine whether compounds bind to the allosteric AMP binding site of hlFBPase, the enzyme was incubated with radiolabeled AMP in the presence of a range of test compound concentrations. The reaction mixtures consisted of […] ^3H-AMP (54 mCi/mmol) and […] test compound in 25 mM Tris-HCl, pH 7.4, 100 mM KCl and 1 mM MgCl2. 1.45 mg of homogeneous FBPase (±1 nmole) was added last. After a 1 minute incubation, AMP bound to FBPase was separated from unbound AMP by means of a centrifugal ultrafiltration unit (“Ultrafree-MC”, Millipore) used according to the instructions of the manufacturer. The radioactivity in aliquots (100 μL) of the upper compartment of the unit (the retentate, which contrains enzyme and label) and the lower compartment (the filtrate, which contains unbound label) were quantified using a Beckman liquid scintillation counter. The amount of AMP bound to the enzyme was estimated by comparing the counts in the filtrate (the unbound label) to the total counts in the retentate.

[1] = test system: fasted Sprague Dawley rats; experiment: Blood glucose lowering in fasted rats; format: in vivo, rat; details: 20 mg/kg intraperitoneally, 18 hours fasted Sprague Dawley rats, one hour post injection
Description: Sprague Dawley rats (250-300 g) were fasted for 18 hours and then dosed intraperitoneally with 20 mg/kg of compounds 12.53, 12.61, or 12.64. The vehicle used for drug administration was 50 mM sodium bicarbonate. Blood samples were obtained from the tail vein of conscious animals just prior to injection and one hour post injection. Blood glucose was measured using a HemoCue Inc. glucose analyzer according to the instructions of the manufacturer.

rat hepatocytes = experiment: Inhibition of gluconeogenesis in rat hepatocytes; format: cell-based
Description: Hepatocytes were prepared from overnight fasted Sprague-Dawley rats (250-300 g) according to the procedure of Berry and Friend (Berry, M. N., Friend, D. S., 1969, J. Cell. Biol. 43, 506-520) as modified by Groen (Groen, A. K., Sips, H. J., Vervoorn, R. C., Tager, J. M., 1982, Eur. J. Biochem. 122, 87-93). Hepatocytes (75 mg wet weight/mL) were incubated in 1 ml Krebs-bicarbonate buffer containing 10 mM Lactate, 1 mM pyruvate, 1 mg/mL BSA, and test compound concentrations from 1 to 500 μM. Incubations were carried out in a 95% oxygen, 5% carbon dioxide atmosphere in closed, 50-mL Falcon tubes submerged in a rapidly shaking water bath (37° C.). After 1 hour, an aliquot (0.25 mL) was removed, transferred to an Eppendorf tube and centrifuged. 50 μL of supernatant was then assayed for glucose content using a Sigma Glucose Oxidase kit as per the manufacturer's instructions.

melting point [°C]	SMILES	IC50 (human liver FBPase; values in text, read-out: hlFBPase IC50) [µM]	EC50 (hlFBPase; displacement of 3H-AMP from hlFBPase, read-out: ED50 for AMP displacement) [µM]	displacement of AMP from human liver FBPase (FIG. 3) (hlFBPase; result in words)	inhibition of human liver FBPase activity (FIG. 2) (human liver FBPase; result in words)	blood glucose lowering [1] [%]	IC50 (rat hepatocytes; Hepatocyte, glucose production from lactate/pyruvate, isolated rat hepatocytes, 1 hour) [µM]	inhibition of glucose production in rat hepatocytes (FIG. 4) (rat hepatocytes; result in words)
–	NC(=O)c1ncn([C@@H]2O[C@H](COP(=O)(O)O)[C@@H](O)[C@H]2O)c1N [ZMP, 5-aminoimidazole-4-carboxamide riboside monophosphate, reference compound]	12	250	displaced AMP from human liver FBPase in a dose dependent manner	–	–	–	–
230 to 235	CC(C)Cn1c(-c2ccc(P(=O)(O)O)o2)nc2c(N)c(F)ccc21 [Compound 12.53, 4-Amino-5-fluoro-1-isobutyl-2-(2-phosphono-5-furanyl)benzimidazole]	–	–	–	inhibit human liver FBPase activity in vitro in a dose dependent manner	55±14	2.4	inhibit glucose production in vitro in rat hepatocytes
